In brackets after ≈: the same amount, converted by molar mass.
Tests used:
Type in all cases: cell-based
Escherichia Coli NK12 = experiment: MIC by serial dilution, Strain D; conditions: COLINK12, range between last concentration with growth and first without growth
Description: (§1) The MICs were calculated using the serial dilution method, and are expressed as the range between the last concentration at which the bacterial strain grows and the first concentration at which the strain tested no longer grows.

[1] = test system: Escherichia Coli ATCC 25922; experiment: MIC by serial dilution, Strain C; conditions: ATCC25922, range between last concentration with growth and first without growth
Description: as §1

[2] = test system: Staphylococcus aureus IM149; experiment: MIC by serial dilution, Strain A; conditions: for MIC: range between last concentration with growth and first without growth
Description: as §1

[3] = test system: Bacillus Subtilis ATCC 6633; experiment: MIC by serial dilution, Strain B; conditions: ATCC6633, range between last concentration with growth and first without growth
Description: as §1

[4] = test system: Gram-positive and Gram-negative strains; experiment: Antibacterial activity, overall statements on the MIC test
Description: as §1

Compound | MIC (Escherichia Coli NK12) [µg/mL] | MIC [1] [µg/mL] | MIC [2] [µg/mL] | MIC [3] [µg/mL] | MIC against strain A compared with RFX [2] | antibacterial activity (in words) [4]
CO[C@H]1/C=C/O[C@@]2(C)Oc3c(C)c(O)c4c(O)c(c5c(nc6ccc(/C=N/N7CCCCC7)cn65)c4c3C2=O)NC(=O)/C(C)=C\C=C\[C@H](C)[C@H](O)[C@@H](C)[C@@H](O)[C@@H](C)[C@H](O)[C@@H]1C [Example 11, 25-desacetyl-5′-[(1-piperidinyl)iminomethyl]-4-desoxypyrido[1′,2′-1,2]imidazo[5,4-c]rifamycin SV] | 32 to 64 (≈ 38.1 to 76.2 µM) | 32 to 64 (≈ 38.1 to 76.2 µM) | 8 to 16 (≈ 9.52 to 19 µM) | 4 to 8 (≈ 4.76 to 9.52 µM) | – | –
CO[C@H]1/C=C/O[C@@]2(C)Oc3c(C)c(O)c4c(O)c(c5c(nc6ccc(/C=N/N(C)C)cn65)c4c3C2=O)NC(=O)/C(C)=C\C=C\[C@H](C)[C@H](O)[C@@H](C)[C@@H](O)[C@@H](C)[C@H](O)[C@@H]1C [Example 12, 25-desacetyl-5′-[(N,N-dimethylamino)iminomethyl]-4-desoxypyrido[1′,2′-1,2]imidazo[5,4-c]rifamycin SV] | > 64 | > 64 | 8 to 16 (≈ 10 to 20 µM) | 4 to 8 (≈ 5 to 10 µM) | – | –
CO/N=C/c1ccn2c(c1)nc1c3c4c5c(C)c(O)c3c(O)c(c12)NC(=O)/C(C)=C\C=C\[C@H](C)[C@H](O)[C@@H](C)[C@@H](O)[C@@H](C)[C@H](OC(C)=O)[C@H](C)[C@@H](OC)/C=C/O[C@@](C)(O5)C4=O [Example 13, 4′-(N-methoxy)-iminomethyl-4-desoxypyrido[1′,2′-1,2]imidazo[5,4-c]rifamycin SV] | 8 to 16 (≈ 9.65 to 19.3 µM) | 8 to 16 (≈ 9.65 to 19.3 µM) | < 0.015 | < 0.015 | lower than RFX | fully comparable to that of RFX
CO[C@H]1/C=C/O[C@@]2(C)Oc3c(C)c(O)c4c(O)c(c5c(nc6cc(/C=N/C(C)C)ccn65)c4c3C2=O)NC(=O)/C(C)=C\C=C\[C@H](C)[C@H](O)[C@@H](C)[C@@H](O)[C@@H](C)[C@H](OC(C)=O)[C@@H]1C [Example 14] | 8 to 16 (≈ 9.51 to 19 µM) | 8 to 16 (≈ 9.51 to 19 µM) | 0.03 to 0.06 (≈ 0.0357 to 0.0713 µM) | 8 to 16 (≈ 9.51 to 19 µM) | lower than RFX | fully comparable to that of RFX
CO[C@H]1/C=C/O[C@@]2(C)Oc3c(C)c(O)c4c(O)c(c5c(nc6cc(/C=N/N7CCOCC7)ccn65)c4c3C2=O)NC(=O)/C(C)=C\C=C\[C@H](C)[C@H](O)[C@@H](C)[C@@H](O)[C@@H](C)[C@H](OC(C)=O)[C@@H]1C [Example 15] | 4 to 8 (≈ 4.52 to 9.05 µM) | 8 to 16 (≈ 9.05 to 18.1 µM) | < 0.015 | 8 to 16 (≈ 9.05 to 18.1 µM) | lower than RFX | fully comparable to that of RFX

Continued, in another order:

MIC (Escherichia Coli NK12) [µg/mL] | MIC [1] [µg/mL] | MIC [2] [µg/mL] | MIC [3] [µg/mL] | Compound | MIC against strain A compared with RFX [2] | antibacterial activity (in words) [4]
4 to 8 (≈ 4.99 to 9.98 µM) | 8 to 16 (≈ 9.98 to 20 µM) | 8 to 16 (≈ 9.98 to 20 µM) | 2 to 4 (≈ 2.49 to 4.99 µM) | CO[C@H]1/C=C/O[C@@]2(C)Oc3c(C)c(O)c4c(O)c(c5c(nc6cc(CO)ccn65)c4c3C2=O)NC(=O)/C(C)=C\C=C\[C@H](C)[C@H](O)[C@@H](C)[C@@H](O)[C@@H](C)[C@H](OC(C)=O)[C@@H]1C [Example 1, 4′-methylol-4-desoxypyrido[1′,2′-1,2]imidazo[5,4-c]rifamycin SV] | – | –
> 64 | > 64 | > 64 | > 64 | CO[C@H]1/C=C/O[C@@]2(C)Oc3c(C)c(O)c4c(O)c(c5c(nc6cc(C=O)ccn65)c4c3C2=O)NC(=O)/C(C)=C\C=C\[C@H](C)[C@H](O)[C@@H](C)[C@@H](O)[C@@H](C)[C@H](OC(C)=O)[C@@H]1C [Example 2, 4′-formyl-4-desoxypyrido[1′,2′-1,2]imidazo[5,4-c]rifamycin SV] | – | –
8 to 16 (≈ 9.07 to 18.1 µM) | 4 to 8 (≈ 4.54 to 9.07 µM) | 0.03 to 0.06 (≈ 0.034 to 0.068 µM) | 0.062 to 0.125 (≈ 0.0703 to 0.142 µM) | CO[C@H]1/C=C/O[C@@]2(C)Oc3c(C)c(O)c4c(O)c(c5c(nc6cc(/C=N/N7CCCCC7)ccn65)c4c3C2=O)NC(=O)/C(C)=C\C=C\[C@H](C)[C@H](O)[C@@H](C)[C@@H](O)[C@@H](C)[C@H](OC(C)=O)[C@@H]1C [Example 4, 4′-[(1-piperidinyl)iminomethyl]-4-desoxypyrido[1′,2′-1,2]imidazo[5,4-c]rifamycin SV] | – | –
32 to 64 (≈ 38 to 76 µM) | 32 to 64 (≈ 38 to 76 µM) | 0.03 to 0.06 (≈ 0.0356 to 0.0713 µM) | 0.062 to 0.125 (≈ 0.0736 to 0.148 µM) | CO[C@H]1/C=C/O[C@@]2(C)Oc3c(C)c(O)c4c(O)c(c5c(nc6cc(/C=N/N(C)C)ccn65)c4c3C2=O)NC(=O)/C(C)=C\C=C\[C@H](C)[C@H](O)[C@@H](C)[C@@H](O)[C@@H](C)[C@H](OC(C)=O)[C@@H]1C [Example 5, 4′-[(N,N-dimethylamino)iminomethyl]-4-desoxypyrido[1′,2′-1,2]imidazo[5,4-c]rifamycin SV] | – | –
32 to 64 (≈ 34.8 to 69.6 µM) | > 64 | > 64 | 8 to 16 (≈ 8.71 to 17.4 µM) | CO[C@H]1/C=C/O[C@@]2(C)Oc3c(C)c(O)c4c(O)c(c5c(nc6cc(/C=N/NC(=O)c7ccncc7)ccn65)c4c3C2=O)NC(=O)/C(C)=C\C=C\[C@H](C)[C@H](O)[C@@H](C)[C@@H](O)[C@@H](C)[C@H](OC(C)=O)[C@@H]1C [Example 6, 4′-[(4-carboxyamidopyridyl)iminomethyl]-4-desoxypyrido[1′,2′-1,2]imidazo[5,4-c]rifamycin SV] | – | –
32 to 64 (≈ 38 to 76 µM) | 32 to 64 (≈ 38 to 76 µM) | 0.03 to 0.06 (≈ 0.0356 to 0.0713 µM) | 0.062 to 0.125 (≈ 0.0736 to 0.148 µM) | CO[C@H]1/C=C/O[C@@]2(C)Oc3c(C)c(O)c4c(O)c(c5c(nc6ccc(/C=N/N(C)C)cn65)c4c3C2=O)NC(=O)/C(C)=C\C=C\[C@H](C)[C@H](O)[C@@H](C)[C@@H](O)[C@@H](C)[C@H](OC(C)=O)[C@@H]1C [Example 7, 5′-[(N,N-dimethylamino)iminomethyl]-4-desoxypyrido[1′,2′-1,2]imidazo[5,4-c]rifamycin SV] | – | –
8 to 16 (≈ 9.07 to 18.1 µM) | 4 to 8 (≈ 4.54 to 9.07 µM) | 0.03 to 0.06 (≈ 0.034 to 0.068 µM) | 0.062 to 0.125 (≈ 0.0703 to 0.142 µM) | CO[C@H]1/C=C/O[C@@]2(C)Oc3c(C)c(O)c4c(O)c(c5c(nc6ccc(/C=N/N7CCCCC7)cn65)c4c3C2=O)NC(=O)/C(C)=C\C=C\[C@H](C)[C@H](O)[C@@H](C)[C@@H](O)[C@@H](C)[C@H](OC(C)=O)[C@@H]1C [Example 8, 5′-[(1-piperidinyl)iminomethyl]-4-desoxypyrido[1′,2′-1,2]imidazo[5,4-c]rifamycin SV] | – | –

Source: patent US11028086B2, “Pyrido-imidazo rifamycins” (Biofer S.p.A., priority 2017, dated 2021)
